Test results reported in the supplement of paper PMC10307832.

Key:
Assay in all cases: relative viability (nuclei count vs DMSO), 5 days (fraction); higher = more cells survive
[1] = compound: COc1cc2c(Oc3ccc4[nH]c(C)cc4c3F)ncnc2cc1OCCCN1CCCC1 [Cediranib] + Cc1nc(NC(=O)N2CCC[C@H]2C(N)=O)sc1-c1ccnc(C(C)(C)C(F)(F)F)c1 [Alpelisib] (partner 2 µM)
Procedure, shortened: (§1)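 Values are medians from duplicate plates. Each reflects relative viability, defined as the nuclei count of treated wells over that of vehicle wells. Lung cancer cell lines in 1536-well plates were pin-tool dosed one day after seeding with one drug alone or with a fixed anchor-drug dose plus five library-drug doses (not always all listed) in √10 steps, then fixed, stained and imaged at 4× after 5 days.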

[2] = compound: O=C(C[C@H]1NCCC[C@@H]1O)Cn1cnc2cc(Br)c(Cl)cc2c1=O (racemic) [Halofuginone] + CCNC(=O)c1noc(-c2cc(C(C)C)c(O)cc2O)c1-c1ccc(CN2CCOCC2)cc1 [Luminespib] (partner 0.01 µM)
Procedure, shortened: as §1

[3] = compound: O=C(C[C@H]1NCCC[C@@H]1O)Cn1cnc2cc(Br)c(Cl)cc2c1=O (racemic) [Halofuginone] + C[C@]1(O)C[C@@H](c2nc(-c3ccc4ccc(-c5ccccc5)nc4c3)c3c(N)nccn32)C1 [Linsitinib] (partner 1 µM)
Procedure, shortened: as §1

[4] = compound: O=C(C[C@H]1NCCC[C@@H]1O)Cn1cnc2cc(Br)c(Cl)cc2c1=O (racemic) [Halofuginone] + NC(=O)Nc1cc(-c2cccc(F)c2)sc1C(=O)N[C@H]1CCCNC1 [AZD7762] (partner 0.2 µM)
Procedure, shortened: as §1

| Cell Line | relative viability ([1]; first compound 0.04 µM) | relative viability ([1]; first compound 0.1265 µM) | relative viability ([1]; first compound 0.4 µM) | relative viability ([1]; first compound 1.265 µM) | relative viability ([1]; first compound 4 µM) | relative viability ([2]; first compound 0.001 µM) | relative viability ([2]; first compound 0.003162 µM) | relative viability ([2]; first compound 0.01 µM) | relative viability ([2]; first compound 0.03162 µM) | relative viability ([2]; first compound 0.1 µM) | relative viability ([3]; first compound 0.001 µM) | relative viability ([3]; first compound 0.003162 µM) | relative viability ([3]; first compound 0.01 µM) | relative viability ([3]; first compound 0.03162 µM) | relative viability ([3]; first compound 0.1 µM) | relative viability ([4]; first compound 0.001 µM) | relative viability ([4]; first compound 0.003162 µM) | relative viability ([4]; first compound 0.01 µM) | relative viability ([4]; first compound 0.03162 µM) | relative viability ([4]; first compound 0.1 µM) |
| --- | --- | --- | --- | --- | --- | --- | --- | --- | --- | --- | --- | --- | --- | --- | --- | --- | --- | --- | --- | --- |
| PC-3 [JPC-3] | 0.953 | 0.976 | 0.998 | 1.02 | 0.97 | 0.705 | 0.714 | 0.626 | 0.823 | 0.661 | 0.981 | 0.987 | 0.911 | 1.01 | 0.941 | 0.881 | 0.933 | 0.669 | 0.783 | 0.499 |
| HCC-44 | 0.754 | – | 0.731 | 0.784 | 0.898 | 1.09 | 1.15 | 1 | 1 | 0.155 | 0.67 | 0.678 | 0.594 | 0.682 | 0.341 | 1.06 | 1.01 | 1.02 | 1.03 | 1.05 |
| NCI-H2405 | 0.815 | 1.07 | 0.631 | 0.77 | 0.758 | 0.797 | 0.691 | 0.72 | 0.688 | 0.663 | 0.991 | 1.05 | 1.01 | 0.906 | 0.69 | 0.79 | 0.881 | 0.674 | 0.678 | 0.541 |
| LXF-289 | 1.08 | 0.971 | 0.995 | 1.05 | 1.04 | 0.664 | 0.701 | 0.699 | 0.763 | 0.317 | 0.938 | 1.05 | 0.877 | 0.954 | 0.923 | 1.08 | 1.17 | 1.02 | 1.12 | 1.01 |
| LOU-NH91 | 0.702 | 0.952 | 0.695 | 0.672 | 0.615 | 0.332 | 0.361 | 0.354 | 0.346 | 0.339 | 0.97 | 0.977 | 0.97 | 0.977 | 0.842 | 0.793 | 0.735 | 0.767 | 0.691 | 0.664 |
| H3255 | 0.785 | 0.754 | 0.691 | 0.622 | 0.61 | 0.807 | 0.742 | 0.974 | 0.908 | 0.924 | 0.913 | 0.952 | 0.876 | 0.941 | 0.805 | 1.05 | 0.777 | 0.871 | 0.844 | 0.876 |
| NCI-H1395 | 0.947 | – | 1.01 | 1.04 | 1.04 | 0.826 | 0.655 | 0.626 | 0.656 | 0.642 | 1.17 | 1.62 | 1.2 | 0.961 | 0.776 | 0.385 | 0.39 | 0.372 | 0.385 | 0.41 |
| LC-2-ad | 0.994 | 0.97 | 0.809 | 0.86 | 0.635 | 1.08 | 1 | 0.848 | 1.01 | 0.326 | 0.843 | 0.796 | 0.763 | 0.818 | 0.264 | 0.841 | 0.878 | 0.831 | 0.885 | 0.576 |
| NCI-H838 | 1.06 | 0.997 | 0.97 | 0.962 | 1.13 | 0.366 | 0.257 | 0.335 | 0.349 | 0.158 | 1.03 | 0.857 | 0.94 | 0.549 | 0.127 | 1.02 | 0.799 | 0.933 | 0.876 | 0.751 |
| LCLC-97TM1 | 0.235 | – | 0.25 | 0.237 | 0.199 | 0.741 | 0.801 | 0.905 | 0.791 | 0.854 | 0.209 | 0.189 | 0.187 | 0.179 | 0.163 | 0.33 | 0.18 | 0.211 | 0.22 | 0.237 |
| HCC-15 | 0.961 | – | 0.827 | 0.933 | 0.961 | 0.307 | 0.311 | 0.653 | 0.453 | 0.317 | 0.914 | 0.908 | 0.839 | 0.92 | 0.688 | 1.19 | 1.26 | 1 | 1.18 | 1.2 |
| CAL-12T | 1.38 | 1.13 | 1.05 | 1.26 | 1.13 | 0.73 | 0.548 | 0.489 | 0.423 | 0.14 | 0.842 | 0.838 | 0.659 | 0.866 | 0.649 | 0.642 | 0.688 | 0.584 | 0.695 | 0.695 |
| NCI-H727 | 0.452 | 0.59 | 0.55 | 0.624 | 0.551 | 0.258 | 0.327 | 0.435 | 0.389 | 0.355 | 0.324 | 0.427 | 0.415 | 0.243 | 0.132 | 0.777 | 0.551 | 0.72 | 0.677 | 0.634 |
| ABC-1 | 1.06 | 1.01 | 1.04 | – | 1.07 | – | 0.793 | 0.518 | 0.225 | 0.377 | 0.921 | 0.947 | 0.763 | 0.625 | 0.961 | – | 0.728 | 0.689 | 0.832 | 0.775 |
| NCI-H1993 | 0.734 | 0.709 | 0.631 | 0.677 | 0.791 | 1 | 1.05 | 0.699 | 0.863 | 0.682 | 0.742 | 0.685 | 0.72 | 0.801 | 0.544 | 0.733 | 0.421 | 0.787 | 1.11 | 0.586 |
| NCI-H2085 | 1.02 | 0.94 | 0.974 | 1.09 | 0.953 | 0.41 | 0.5 | 0.48 | 0.489 | 0.377 | 0.863 | 1.01 | 0.864 | 0.898 | 0.627 | 0.996 | 1.02 | 0.947 | 0.992 | 0.932 |
